Structures can show the parent of a compound that is named as a salt.

On to `Cc1cc(-c2nc3cccnn3c2-c2ccnc(NC(=O)c3ccc(C(F)(F)F)nc3)c2)ccc1F` [Example 42-26, N-{4-[2-(4-fluoro-3-methylphenyl)imidazo[1,2-b]pyridazin-3-yl]pyridin-2-yl}-6-(trifluoromethyl)nicotinamide], for which the melting point (commonly the temperature, or range, at which the solid turns liquid) lay in the range of 225 to 226 °C.

In turn, `Cc1cccc(Nc2cc(-c3c(-c4cccc(C)c4)nc4cccnn34)ccn2)c1` [Example Compound 6-9, N-(3-methylphenyl)-4-[2-(3-methylphenyl)imidazo[1,2-b]pyridazin-3-yl]pyridin-2-amine] gave a melting point of 195 to 196 °C.

Regarding `Cc1cc(-c2nc3cccnn3c2-c2ccnc(NC(=O)c3ccc4ccccc4c3)c2)ccc1F` [Example 42-19, N-{4-[2-(4-fluoro-3-methylphenyl)imidazo[1,2-b]pyridazin-3-yl]pyridin-2-yl}-2-naphthamide], the melting point fell in the range of 187 to 188 °C.

`Cc1cc(-c2nc3cccnn3c2-c2ccnc(NC(=O)NCC(C)C)c2)ccc1F` [Example 51-3, N-{4-[2-(4-fluoro-3-methylphenyl)imidazo[1,2-b]pyridazin-3-yl]pyridin-2-yl}-N′-isobutylurea] came in with a melting point of 213 to 214 °C.

Turning to `Cc1cccc(-c2nc3cccnn3c2-c2ccnc(NC(=O)c3ccc(Cl)cc3)c2)c1` [Example Compound 20-3, 4-chloro-N-{4-[2-(3-methylphenyl)imidazo[1,2-b]pyridazin-3-yl]pyridin-2-yl}benzamide], the melting point is 211 to 212 °C.

Molecule `Cc1cc(-c2nc3cccnn3c2-c2ccnc(NC(=O)c3ccc(Cl)cc3)c2)ccc1F.Cl` came in with a melting point of 264 to 266 °C.

Consider `Cc1cc(-c2nc3cccnn3c2-c2ccnc(NC(=O)c3ccc(Cl)cc3C)c2)ccc1F` [Example 42-15, 4-chloro-N-{4-[2-(4-fluoro-3-methylphenyl)imidazo[1,2-b]pyridazin-3-yl]pyridin-2-yl}-2-methylbenzamide], for which the melting point was 196 to 197 °C.

In turn, `Cc1cccc(-c2nc3cccnn3c2-c2ccnc(NC3CCCC3)c2)c1` [Example Compound 6-2, N-cyclopentyl-4-[2-(3-methylphenyl)imidazo[1,2-b]pyridazin-3-yl]pyridin-2-amine] registered a melting point of 130 to 131 °C.

Take `Cc1cc(-c2nc3cccnn3c2-c2ccnc(NC(=O)NC3CCOCC3)c2)ccc1F` [Example 51-15, N-{4-[2-(4-fluoro-3-methylphenyl)imidazo[1,2-b]pyridazin-3-yl]pyridin-2-yl}-N′-(tetrahydro-2H-pyran-4-yl)urea]: the melting point lay within 240 to 241 °C.

Turning to `Cc1cc(-c2nc3cccnn3c2-c2ccnc(NC(=O)N3CCC(O)CC3)c2)ccc1F.Cl`, the melting point was in the range of 156 to 157 °C.

Take `Nc1cc(-c2c(-c3ccc(Cl)cc3)nc3cccnn23)ccn1` [Example Compound 16-2, 4-[2-(4-chlorophenyl)imidazo[1,2-b]pyridazin-3-yl]pyridin-2-amine]: the melting point lay within 252 to 253 °C.

On to `COc1ccc(C(=O)Nc2nccc(-c3c(-c4cccc(C)c4)nc4cccnn34)n2)cc1` [Example 44-2, 4-methoxy-N-{4-[2-(3-methylphenyl)imidazo[1,2-b]pyridazin-3-yl]pyrimidin-2-yl}benzamide], for which the melting point was in the range of 193 to 194 °C.

`Cc1cc(-c2nc3cccnn3c2-c2ccnc(NC(=O)c3ccc(Cl)cc3)c2)ccc1F` (as salt: methanesulfonate) [Example 62, 4-Chloro-N-{4-[2-(4-fluoro-3-methylphenyl)imidazo[1,2-b]pyridazin-3-yl]pyridin-2-yl}benzamide methanesulfonate] returned a melting point of 239 to 241 °C.

`Cc1cccc(-c2nc3cccnn3c2-c2ccnc(NCC3CCCCC3)c2)c1` [Example 38, N-(Cyclohexylmethyl)-4-[2-(3-methylphenyl)imidazo[1,2-b]pyridazin-3-yl]pyridin-2-amine] gave a melting point of 128 to 130 °C.

`Cc1cccc(-c2nc3ccc(Cl)nn3c2-c2ccnc(Nc3ccccc3C)c2)c1` [Example Compound 3-2, 4-[6-chloro-2-(3-methylphenyl)imidazo[1,2-b]pyridazin-3-yl]-N-(2-methylphenyl)pyridin-2-amine] came in with a melting point of 191 to 192 °C.

`Cc1cc(-c2nc3cccnn3c2-c2ccnc(NC(=O)c3ccc(Cl)nc3)c2)ccc1F` [Example 42-24, 6-chloro-N-{4-[2-(4-fluoro-3-methylphenyl)imidazo[1,2-b]pyridazin-3-yl]pyridin-2-yl}nicotinamide] had a melting point of 225 to 226 °C.

In turn, `COc1ccc2nc(-c3ccc(F)c(C)c3)c(-c3ccnc(NC(=O)NC(C)C)c3)n2n1` [Example 53, N-{4-[2-(4-Fluoro-3-methylphenyl)-6-methoxyimidazo[1,2-b]pyridazin-3-yl]pyridin-2-yl}-N′-isopropylurea] had a melting point of 233 to 234 °C.

Consider `Cc1cc(-c2nc3c(C)ccnn3c2-c2ccnc(NC(=O)c3ccc(F)cc3)c2)ccc1F` [Example 41-4, N-{4-[2-(4-fluoro-3-methylphenyl)-8-methylimidazo[1,2-b]pyridazin-3-yl]-2-pyridyl}-4-fluorobenzamide], for which the melting point was 243 to 244 °C.

On to `Cc1cccc(-c2nc3cccnn3c2-c2ccnc(N[C@H](C)c3ccccc3)c2)c1` [Example Compound 6-22, 4-[2-(3-methylphenyl)imidazo[1,2-b]pyridazin-3-yl]-N-[(1R)-1-phenylethyl]pyridin-2-amine], for which the melting point was in the range of 154 to 155 °C.

The molecule `Cc1cc(-c2nc3cc(C(C)(C)C)cnn3c2-c2ccnc(NC(=O)c3ccc(F)cc3)c2)ccc1F` [Example 41-5, N-{4-[7-tert-butyl-2-(4-fluoro-3-methylphenyl)imidazo[1,2-b]pyridazin-3-yl]-2-pyridyl}-4-fluorobenzamide] gave a melting point of 201 to 202 °C.

For the molecule `Cc1cc(-c2nc3cccnn3c2-c2ccnc(NC(=O)c3ccc(Cl)cc3)c2)ccc1F` [Example 42-7, 4-chloro-N-{4-[2-(4-fluoro-3-methylphenyl)imidazo[1,2-b]pyridazin-3-yl]pyridin-2-yl}benzamide], the melting point was in the range of 208 to 209 °C.

`Cc1cc(-c2nc3cccnn3c2-c2ccnc(NC(=O)c3ccnc(Cl)c3)c2)ccc1F` [Example 42-25, 2-chloro-N-{4-[2-(4-fluoro-3-methylphenyl)imidazo[1,2-b]pyridazin-3-yl]pyridin-2-yl}isonicotinamide] had a melting point of 224 to 225 °C.

`CSc1cc(Cl)nn2c(-c3ccnc(N)c3)c(-c3ccc(F)c(C)c3)nc12` [Example Compound 36-4, 4-[6-chloro-2-(4-fluoro-3-methylphenyl)-8-(methylthio)imidazo[1,2-b]pyridazin-3-yl]-2-pyridylamine] had a melting point of 237 to 238 °C.

`Cc1cccc(-c2nc3cccnn3c2-c2ccnc(N)n2)c1` [Example Compound 37-1, 4-[2-(3-methylphenyl)imidazo[1,2-b]pyridazin-3-yl]-2-pyrimidinamine] showed a melting point of 250 to 251 °C.

`Cc1cc(-c2nc3c(C)ccnn3c2-c2ccnc(N)c2)ccc1F` [Example Compound 37-2, 4-[2-(4-fluoro-3-methylphenyl)-8-methylimidazo[1,2-b]pyridazin-3-yl]-2-pyridylamine] yielded a melting point of 212 to 213 °C.

In the case of `CCNC(=O)Nc1cc(-c2c(-c3ccc(F)c(C)c3)nc3cc(C(C)(C)C)c(Cl)nn23)ccn1` [Example 48-2, N-{4-[7-tert-butyl-6-chloro-2-(4-fluoro-3-methylphenyl)imidazo[1,2-b]pyridazin-3-yl]-2-pyridyl}-N′-ethylurea], the melting point lay in the range of 246 to 247 °C.

In turn, `Cc1cccc(-c2nc3ccc(Cl)nn3c2-c2ccnc(N)c2)c1` [Example 12, 4-[6-Chloro-2-(3-methylphenyl)imidazo[1,2-b]pyridazin-3-yl]pyridin-2-amine] returned a melting point of 247 to 248 °C.

`CC(=O)Nc1cc(-c2c(-c3cccc(C)c3)nc3cccnn23)ccn1` [Example Compound 20-7, N-{4-[2-(3-methylphenyl)imidazo[1,2-b]pyridazin-3-yl]pyridin-2-yl}acetamide] gave a melting point of 227 to 228 °C.

`CCCCNc1cc(-c2c(-c3cccc(C)c3)nc3cccnn23)ccn1` [Example Compound 6-24, N-butyl-4-[2-(3-methylphenyl)imidazo[1,2-b]pyridazin-3-yl]pyridin-2-amine] returned a melting point of 128 to 129 °C.

The molecule `COc1ccc(C(=O)Nc2cc(-c3c(-c4ccc(F)c(C)c4)nc4cccnn34)ccn2)c(C)c1` [Example 42-18, N-{4-[2-(4-fluoro-3-methylphenyl)imidazo[1,2-b]pyridazin-3-yl]pyridin-2-yl}-4-methoxy-2-methylbenzamide] returned a melting point of 200 to 202 °C.

In turn, `Cc1cc(-c2nc3cccnn3c2-c2ccnc(NC(=O)CS(C)(=O)=O)c2)ccc1F` [Example 57-1, N-{4-[2-(4-fluoro-3-methylphenyl)imidazo[1,2-b]pyridazin-3-yl]pyridin-2-yl}-2-(methylsulfonyl)acetamide] gave a melting point of 240 to 241 °C.

Turning to `Cc1cc(-c2nc3cccnn3c2-c2ccnc(NC(=O)C(C)C)c2)ccc1F` [Example 42-2, N-{4-[2-(4-fluoro-3-methylphenyl)imidazo[1,2-b]pyridazin-3-yl]pyridin-2-yl}-2-methylpropanamide], the melting point was in the range of 214 to 215 °C.

With `CCNC(=O)Nc1cc(-c2c(-c3ccc(F)c(C)c3)nc3c(C)ccnn23)ccn1` [Example 48-3, N-{4-[2-(4-fluoro-3-methylphenyl)-8-methylimidazo[1,2-b]pyridazin-3-yl]-2-pyridyl}-N′-ethylurea], the melting point lay within 240 to 241 °C.

The molecule `CC(=O)CNC(=O)Nc1cc(-c2c(-c3ccc(F)c(C)c3)nc3cccnn23)ccn1` [Example 63, N-{4-[2-(4-Fluoro-3-methylphenyl)imidazo[1,2-b]pyridazin-3-yl]pyridin-2-yl}-N′-(2-oxopropyl)urea] showed a melting point of 208 to 209 °C.

Regarding `Cc1cccc(-c2nc3cccnn3c2-c2ccnc(NC(=O)C(C)O)c2)c1` (centres unmarked) [Example 29, 2-Hydroxy-N-{4-[2-(3-methylphenyl)imidazo[1,2-b]pyridazin-3-yl]pyridin-2-yl}propanamide], the melting point was 223 to 224 °C.

(Values after patent US20080167314A1, “Condensed Imidazole Compound And Use Thereof” (priority 2004, published 2008).)
